Four compounds from ChEMBL document CHEMBL3612058, “Synthesis and biological evaluation of a new series of 2-amino-3-aroyl thiophene derivatives as agonist allosteric modulators of the A1 adenosine receptor. A position-dependent effect study” (Eur J Med Chem, 2015) can be followed below.

Structures are written as SMILES. Activity calls are given as the source filed them. The calls are words filed in the database; no cut-off is given here. Where only a bound is given, the exact number is not on record here.

Test [1] deals with T1, Adenosine receptor A1 (Homo sapiens) (UniProt P30542).
T1 sequence (whole entry): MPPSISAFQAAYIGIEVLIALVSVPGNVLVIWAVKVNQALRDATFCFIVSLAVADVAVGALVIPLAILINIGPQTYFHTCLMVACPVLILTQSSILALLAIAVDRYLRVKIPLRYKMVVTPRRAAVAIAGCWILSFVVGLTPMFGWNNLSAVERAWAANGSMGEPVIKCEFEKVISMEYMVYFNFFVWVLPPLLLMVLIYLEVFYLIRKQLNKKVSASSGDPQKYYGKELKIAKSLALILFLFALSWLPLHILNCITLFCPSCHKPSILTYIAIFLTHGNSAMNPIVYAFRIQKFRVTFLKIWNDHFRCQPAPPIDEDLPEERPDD
The test is described as follows: Effect on dissociation binding rate constant of [3H]-NECA to human adenosine A1 receptor expressed in CHO cells at 1 uM after 45 mins by scintillation spectrometry analysis relative to control. The class given is cell-based.

The target in test [2] is T1, Adenosine receptor A1 (Homo sapiens). The test is described as follows: Positive allosteric enhancement of human cloned adenosine A1 receptor expressed in CHO cells assessed as inhibition of forskolin-induced cAMP accumulation at 10 uM using [3H]-cAMP by scintillation counting relative to control. The class given is functional, cell-based.
Test [3] deals with Mus musculus. The test is described as follows: Antinociceptive effect in CD1 mouse assessed as inhibition of formalin-induced pain behavior in paw at 3 mg/kg, ip administered 15 mins before formalin challenge measured up to 45 mins relative to control. The class given is functional.
The target in test [4] is T1, Adenosine receptor A1 (Homo sapiens). The test is described as follows: Effect on association binding rate constant of [3H]-NECA to human adenosine A1 receptor expressed in CHO cells at 1 uM after 45 mins by scintillation spectrometry analysis. The class given is cell-based.
Test [5] has as its system Mus musculus. The test is described as follows: Antinociceptive effect in CD1 mouse assessed as inhibition of formalin-induced pain behavior in paw at 0.3 mg/kg, ip administered 15 mins before formalin challenge measured up to 45 mins relative to control. The class given is functional.
Test [6] deals with T1, Adenosine receptor A1 (Homo sapiens). The test is described as follows: Increase of [3H]-NECA affinity to human adenosine A1 receptor expressed in CHO cells at 1 uM after 45 mins by scintillation spectrometry analysis relative to control. The class given is cell-based.
Test [7] can be described thus: Displacement of [3H]-ZM241385 from human adenosine A2 receptor expressed in CHO cells at 10 uM after 120 mins by scintillation counting. The class given is cell-based.
Test [8] concerns the target T1, Adenosine receptor A1 (Homo sapiens). The test is described as follows: Binding affinity to human adenosine A1 receptor expressed in CHO cells assessed as fold Ki shift of CCPA at 10 uM after 90 mins by [3H]-CCPA displacement assay relative to control. The class given is cell-based.
For test [9], the target named is T2, Adenosine receptor A3 (Homo sapiens) (UniProt P0DMS8).
T2 sequence (whole entry): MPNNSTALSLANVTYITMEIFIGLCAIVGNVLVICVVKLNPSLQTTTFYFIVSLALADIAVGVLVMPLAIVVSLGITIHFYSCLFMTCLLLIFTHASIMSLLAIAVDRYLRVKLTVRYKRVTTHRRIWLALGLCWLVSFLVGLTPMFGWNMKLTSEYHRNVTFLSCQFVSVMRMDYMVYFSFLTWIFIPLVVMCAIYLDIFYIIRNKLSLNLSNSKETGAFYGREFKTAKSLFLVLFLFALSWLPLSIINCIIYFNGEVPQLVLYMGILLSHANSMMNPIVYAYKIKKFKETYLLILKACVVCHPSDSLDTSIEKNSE
The test is described as follows: Displacement of [3H]-MRE-3008-F20 from human adenosine A3 receptor expressed in CHO cells at 10 uM after 120 mins by scintillation counting. The class given is cell-based.

Test [10] addresses T1, Adenosine receptor A1 (Homo sapiens). The test is described as follows: Positive allosteric enhancement of human cloned adenosine A1 receptor expressed in CHO cells assessed as inhibition of forskolin-induced cAMP accumulation at 100 nM using [3H]-cAMP by scintillation counting relative to control in presence of 1 pM of CCPA. The class given is functional, cell-based.
Test [11] has the same target. In words: Displacement of [3H]DPCPX from human adenosine A1 receptor expressed in CHO cells at 10 uM after 120 mins by scintillation counting. The class given is cell-based.
For test [12] the target is unchanged. In words: Binding affinity to human adenosine A1 receptor expressed in CHO cells assessed as fold Bmax shift of [3H]-CCPA at 10 uM after 90 mins by [3H]-CCPA binding assay relative to control. The class given is cell-based.
Test [13] has the same target. In words: Ratio of PD81723 to compound for positive allosteric enhancement of human cloned adenosine A1 receptor expressed in CHO cells assessed as inhibition of forskolin-induced cAMP accumulation at 10 uM using [3H]-cAMP by scintillation counting. The class given is functional, cell-based.

On to `Nc1sc(-c2ccc(Cl)cc2)c(Cc2ccc(Cl)cc2)c1C(=O)c1ccc(Cl)cc1`, for which the fold change (FC) in [1] was 2.5; in test [6], 2.3; in test [8], 11.7; in test [12], 11. For the same compound, the inhibition was 81% in test [2]; < 10% in test [7]; < 10% in test [9]; 84% in test [10]; < 10% in [11]. The inhibition in vivo at 3 mg/kg in the test on Mus musculus [3] is 82%. The outcome in [4] was inactive. Further, the inhibition in vivo at 0.3 mg/kg in the test on Mus musculus [5] was 49%. Moreover, the Ratio in test [13] was found to be 3.
Regarding `COc1ccccc1Cc1c(-c2ccccc2)sc(N)c1C(=O)c1ccc(Cl)cc1`, the inhibition is 55% in [2]; < 10% in test [7]; < 10% in test [9]; 51% in [10]; < 10% in test [11]. Besides, the fold change (FC) in test [8] was 4.9; in [12], 5.6. Also, in test [13], the Ratio worked out at 3.
For the compound `Cc1sc(N)c(C(=O)c2cccc(C(F)(F)F)c2)c1C`, the result in [1], in [4] and in test [6] was inactive. Moreover, the inhibition is < 10% in test [7], < 10% in test [9], 21% in [10] and < 10% in test [11]. For the same compound, the fold change (FC) came out at 1.4 in test [8] and 1.3 in [12].
Turning to `Nc1sc(-c2ccc(Cl)cc2)c(Cc2ccccc2)c1C(=O)c1ccc(Cl)cc1`, the inhibition in [2] is 69%; in [7], < 10%; in test [9], < 10%; in [10], 67%; in [11] it was < 10%. Also, the results for the fold change (FC) in [8] and in test [12] were 8.4 and 7.2, respectively. The Ratio in test [13] stood at 3.
